System: patients with prior myocardial infarction (CARE study)
Assay: CARE: association of SNPs with pravastatin treatment in cardiovascular events prevention (logistic regression, odds ratio pravastatin vs placebo by genotype; Table 8)
Format: in vivo, human
Conditions: for Fatal/Non-fatal Atherosclerotic CV Disease, n/total (%) / Hosp. for Cardiovascular Disease, n/total (%) / Total Cardiovascular Disease Events, n/total (%) / Prava vs. Placebo Odds Ratio, 0 Rare Alleles / Prava vs. Placebo Odds Ratio, 1 Rare Alleles / Prava vs. Placebo Odds Ratio, 2 Rare Alleles / Fatal CHD/Definite Non-fatal MI, n/total (%) / Total Coronary Heart Disease Events, n/total (%): All Patients; for Fatal/Non-fatal Atherosclerotic CV Disease, n/total (%) / Hosp. for Cardiovascular Disease, n/total (%) / Total Cardiovascular Disease Events, n/total (%) / Fatal CHD/Definite Non-fatal MI, n/total (%) / Total Coronary Heart Disease Events, n/total (%): Prava; for Stroke, n/total (%): PECAM1 hCV16170911, All Patients, Prava arm
Source text: In order to identify genetic markers associated with acute coronary events (e.g. MI, stroke, unstable angina, congestive heart failure, etc.) or response to statin treatment for the prevention of coronary events, samples from the Cholesterol and Recurrent Events (CARE) study (a randomized multicentral double-blinded trial on secondary prevention of acute coronary events with pravastatin) (Sacks et al., 1991, Am. J. Cardiol. 68: 1436-1446) were genotyped. A well-documented myocardial infarction (MI) was one of the enrollment criteria for entry into the CARE study. Patients were enrolled in the CARE trial from 80 participating study centers. […] Patients were randomized to receive either 40 mg of pravastatin once daily or a matching placebo. The primary endpoint of the trial was death from coronary heart disease and the median duration of follow-up was 5.0 years (range, 4.0 to 6.2 years). […] Secondary endpoints of other related cardiovascular or metabolic disease events, and changes in clinical variables were also recorded in pravastatin-treated and placebo groups. All individuals included in the study had signed a written informed consent form and the study protocol was approved by the respective Institutional Review Boards (IRBs).
For genotyping SNPs in CARE patient samples, DNA was extracted from blood samples using conventional DNA extraction methods such as the QIA-amp kit from Qiagen. Genotypes were obtained on an ABI PRISM® 7900HT Sequence Detection PCR system (Applied Biosystems, Foster City, Calif.) by kinetic allele-specific PCR, similar to the method described by Germer et al. (Germer S., Holland M. J., Higuchi R. 2000, Genome Res. 10: 258-266).
Statistical analysis for association of SNPs with pravastatin treatment in cardiovascular events prevention (Table 8) was carried out using an overall logistic regression model that included an intercept, a parameter for the effect of a genotype containing two rare alleles versus a genotype containing no rare alleles, a parameter for the effect of a genotype containing one rare allele versus a genotype containing no rare alleles, a parameter for the effect of use of pravastatin versus the use of placebo, and parameters for the interaction effects between SNP genotypes and pravastatin use. The test of the overall model is a chi-square test with two degrees of freedom for analyses containing all three genotypes, and one degree of freedom for analyses containing two genotypes.
Effect sizes were estimated through odds ratios (pravastatin group versus placebo) for carriers of each genotype (groups of 0, 1, and 2 minor allele carriers). The effect was considered to be significant if p-value for testing whether any of the interactions between SNP genotypes and pravastatin use were <0.05. […] Odds ratios less than one indicate that the specific SNP allele has a protective effect and odds ratios greater than one indicate that the specific SNP allele has an adverse effect.

[1] = NPC1 hCV7490135, Cardiovascular Mortality
[2] = NPC1 hCV7490135, Fatal Atherosclerotic Cardiovascular Disease
[3] = NPC1 hCV7490135, Fatal/Non-fatal Atherosclerotic CV Disease
[4] = NPC1 hCV7490135, Hosp. for Cardiovascular Disease
[5] = NPC1 hCV7490135, Total Cardiovascular Disease Events
[6] = NPC1 hCV7490135, Total Coronary Heart Disease Events
[7] = NPC1 hCV25472673, Fatal CHD/Definite Non-fatal MI
[8] = NPC1 hCV25472673, Fatal/Non-fatal Atherosclerotic CV Disease
[9] = NPC1 hCV25472673, Hosp. for Cardiovascular Disease
[10] = NPC1 hCV25472673, Total Cardiovascular Disease Events
[11] = NPC1 hCV25472673, Total Coronary Heart Disease Events
[12] = PEMT hCV7443062, Fatal CHD/Definite Non-fatal MI

CC[C@H](C)C(=O)O[C@H]1C[C@H](O)C=C2C=C[C@H](C)[C@H](CC[C@@H](O)C[C@@H](O)CC(=O)O)[C@H]21 [pravastatin]
Fatal/Non-fatal Atherosclerotic CV Disease, n/total (%) (NPC1 hCV7490135, 2 Rare Alleles, n/total 93/324): (28.7%) | Hosp. for Cardiovascular Disease, n/total (%) (NPC1 hCV7490135, 2 Rare Alleles, n/total 117/324): (36.1%) | Total Cardiovascular Disease Events, n/total (%) (NPC1 hCV7490135, 2 Rare Alleles, n/total 119/324): (36.7%) | Prava vs. Placebo Odds Ratio, 0 Rare Alleles [1]: 1.30 | Prava vs. Placebo Odds Ratio, 1 Rare Alleles [1]: 0.83 | Prava vs. Placebo Odds Ratio, 2 Rare Alleles [1]: 0.20 | Prava vs. Placebo Odds Ratio, 0 Rare Alleles [2]: 1.25 | Prava vs. Placebo Odds Ratio, 1 Rare Alleles [2]: 0.83 | Prava vs. Placebo Odds Ratio, 2 Rare Alleles [2]: 0.20 | Prava vs. Placebo Odds Ratio, 0 Rare Alleles [3]: 1.07 | Prava vs. Placebo Odds Ratio, 1 Rare Alleles [3]: 0.73 | Prava vs. Placebo Odds Ratio, 2 Rare Alleles [3]: 0.56 | Prava vs. Placebo Odds Ratio, 0 Rare Alleles [4]: 1.01 | Prava vs. Placebo Odds Ratio, 1 Rare Alleles [4]: 0.76 | Prava vs. Placebo Odds Ratio, 2 Rare Alleles [4]: 0.52 | Prava vs. Placebo Odds Ratio, 0 Rare Alleles [5]: 1.02 | Prava vs. Placebo Odds Ratio, 1 Rare Alleles [5]: 0.75 | Prava vs. Placebo Odds Ratio, 2 Rare Alleles [5]: 0.52 | Prava vs. Placebo Odds Ratio, 0 Rare Alleles [6]: 1.07 | Prava vs. Placebo Odds Ratio, 1 Rare Alleles [6]: 0.72 | Prava vs. Placebo Odds Ratio, 2 Rare Alleles [6]: 0.58 | Fatal CHD/Definite Non-fatal MI, n/total (%) (NPC1 hCV25472673, 0 Rare Alleles, n/total 65/596): (10.9%) | Total Coronary Heart Disease Events, n/total (%) (NPC1 hCV25472673, 0 Rare Alleles, n/total 193/596): (32.4%) | Fatal/Non-fatal Atherosclerotic CV Disease, n/total (%) (NPC1 hCV25472673, 0 Rare Alleles, n/total 221/596): (37.1%) | Hosp. for Cardiovascular Disease, n/total (%) (NPC1 hCV25472673, 0 Rare Alleles, n/total 262/596): (44.0%) | Total Cardiovascular Disease Events, n/total (%) (NPC1 hCV25472673, 0 Rare Alleles, n/total 274/596): (46.0%) | Fatal CHD/Definite Non-fatal MI, n/total (%) (NPC1 hCV25472673, 1 Rare Allele, n/total 56/664): (8.4%) | Total Coronary Heart Disease Events, n/total (%) (NPC1 hCV25472673, 1 Rare Allele, n/total 186/664): (28.0%) | Fatal/Non-fatal Atherosclerotic CV Disease, n/total (%) (NPC1 hCV25472673, 1 Rare Allele, n/total 213/664): (32.1%) | Hosp. for Cardiovascular Disease, n/total (%) (NPC1 hCV25472673, 1 Rare Allele, n/total 255/664): (38.4%) | Total Cardiovascular Disease Events, n/total (%) (NPC1 hCV25472673, 1 Rare Allele, n/total 259/664): (39.0%) | Fatal CHD/Definite Non-fatal MI, n/total (%) (NPC1 hCV25472673, 2 Rare Alleles, n/total 19/242): (7.9%) | Total Coronary Heart Disease Events, n/total (%) (NPC1 hCV25472673, 2 Rare Alleles, n/total 59/242): (24.4%) | Fatal/Non-fatal Atherosclerotic CV Disease, n/total (%) (NPC1 hCV25472673, 2 Rare Alleles, n/total 68/242): (28.1%) | Hosp. for Cardiovascular Disease, n/total (%) (NPC1 hCV25472673, 2 Rare Alleles, n/total 88/242): (36.4%) | Total Cardiovascular Disease Events, n/total (%) (NPC1 hCV25472673, 2 Rare Alleles, n/total 90/242): (37.2%) | Prava vs. Placebo Odds Ratio, 0 Rare Alleles [7]: 1.00 | Prava vs. Placebo Odds Ratio, 1 Rare Alleles [7]: 0.65 | Prava vs. Placebo Odds Ratio, 2 Rare Alleles [7]: 0.41 | Prava vs. Placebo Odds Ratio, 0 Rare Alleles [8]: 1.03 | Prava vs. Placebo Odds Ratio, 1 Rare Alleles [8]: 0.73 | Prava vs. Placebo Odds Ratio, 2 Rare Alleles [8]: 0.41 | Prava vs. Placebo Odds Ratio, 0 Rare Alleles [9]: 1.02 | Prava vs. Placebo Odds Ratio, 1 Rare Alleles [9]: 0.72 | Prava vs. Placebo Odds Ratio, 2 Rare Alleles [9]: 0.40 | Prava vs. Placebo Odds Ratio, 0 Rare Alleles [10]: 1.03 | Prava vs. Placebo Odds Ratio, 1 Rare Alleles [10]: 0.71 | Prava vs. Placebo Odds Ratio, 2 Rare Alleles [10]: 0.39 | Prava vs. Placebo Odds Ratio, 0 Rare Alleles [11]: 1.01 | Prava vs. Placebo Odds Ratio, 1 Rare Alleles [11]: 0.73 | Prava vs. Placebo Odds Ratio, 2 Rare Alleles [11]: 0.44 | Stroke, n/total (%) (0 Rare Alleles): (1.5%) | Stroke, n/total (%) (1 Rare Allele): (3.1%) | Stroke, n/total (%) (2 Rare Alleles): (0.9%) | Fatal CHD/Definite Non-fatal MI, n/total (%) (PEMT hCV7443062, 0 Rare Alleles, n/total 34/478): (7.1%) | Fatal CHD/Definite Non-fatal MI, n/total (%) (PEMT hCV7443062, 1 Rare Allele, n/total 72/735): (9.8%) | Fatal CHD/Definite Non-fatal MI, n/total (%) (PEMT hCV7443062, 2 Rare Alleles, n/total 34/305): (11.1%) | Prava vs. Placebo Odds Ratio, 0 Rare Alleles [12]: 0.42 | Prava vs. Placebo Odds Ratio, 1 Rare Alleles [12]: 0.87
